Data reported in paper PMC10745422, “Absorption, Distribution, Metabolism, and Excretion of [^14C]BS1801, a Selenium-Containing Drug Candidate, in Rats” (Molecules, 2023).

What was measured:
albumin = test system: albumin; set-up: method as in PMID 17363345, PMID 7945407; conditions: cited from earlier work
[1] = Metabolite radio-profiling and identification in pooled plasma, urine, feces and bile (UHPLC-β-RAM/UV/QE MS); format: in vivo, Sprague–Dawley (SD, Rattus norvegicus) rats
Procedure: Three SD rats of each sex were used to obtain plasma samples. […] All samples were stored at −20 °C for analysis.
Then, 3 mL of methanol/water (50:50, v:v) was slowly added to the pooled plasma (1 mL), followed by vortexing for 1 min and sonication for 10 min twice. Then, the upper extract and the lower precipitate were separated by centrifugation (5000 rpm, 10 min). The supernatant was transferred to another new centrifuge tube. Then, 1 mL of water was added to the precipitate, vortexed for 1 min, and sonicated for 10 min. Then, 2 mL of methanol/acetonitrile (50:50, v:v) was added to the mixture, two vortexes were performed for 1 min, and the mixture was ultrasonicated for 10 min, followed by centrifugation (5000 rpm, 10 min). The two-times supernatant extracts were combined and dried under a nitrogen stream and finally redissolved with acetonitrile/water (20:80, v:v). The recoveries of extraction and reconstitution processes were measured via LSC.
The pooled urine was vortexed and centrifuged (5000 rpm, 10 min). After centrifugation, the supernatant was dried under a nitrogen stream and then redissolved in acetonitrile/water (20:80, v:v).
The pooled fecal homogenate (1 g) was extracted by using the same method as for the plasma. The supernatant was then evaporated under a nitrogen stream and redissolved in 300 μL acetonitrile/water (20:80, v:v).
An ACQUITY UPLC BEH Pheny column (100 × 2.1 mm, 1.7 μm) with a Phenomenex KrudKatcher Ultra HPLC In-Line Filter guard column (2 µm, Depth Filter × 0.004 in ID) was used to perform metabolite radio-profiling and characterization on the Vanquish UHPLC system, which was combined with a QExactive Plus mass spectrometer (Thermo, Waltham, MA, USA) containing an electrospray ionization (ESI) source. The column temperature was 40 °C, and the flow rate was 0.45 mL/min. The mobile phases contained 5 mM ammonium acetate with 0.1% formic acid in water (A) and acetonitrile (B). […] The mass spectrometer was operated in positive (+ESI) mode with a m/z 100–1500 Da scanning range. The optimized MS parameters were as follows: sheath gas, 35 L/min; auxiliary gas, 10 L/min; capillary temperature, 320 °C; and spray voltage, 3.8 kV. Data acquisition was performed using Xcalibur 4.1 software (Thermo, Waltham, MA, USA), and data analysis was accomplished using Compound Discoverer software 3.3 SP2 (Thermo, Waltham, MA, USA).
The extracted plasma, urine, feces, and bile samples were separated via UHPLC and detected using an online/offline radioactivity detector to obtain the corresponding radioactive metabolite profiles. Due to low radioactivity of plasma, the UHPLC eluent was collected using a UHPLC fraction collector (Thermo, Waltham, MA, USA) over time (10 s/well) on Deepwell LumaPlateTM 96-well plates. After evaporation via a vacuum centrifuge concentrator, the radioactivity was determined with an offline Sense Beta detector (1 min/well, Hidex, Turku, Finland). For the urine, feces, and bile samples, the UHPLC eluent was analyzed using an online radioactivity detector β-RAM. Radioactive metabolite profiling was integrated to obtain the radio-chromatogram with Laura 6.0.5.101 software (Lablogic, Sheffield, UK). The percentage of each metabolite in urine, feces, and bile (%dose) and the ratio of metabolites in the plasma (% area under the curve, %AUC) were calculated.

[2] = Mass balance: excretion of radioactivity in urine and feces after a single oral dose of [^14C]BS1801; format: in vivo, Sprague–Dawley (SD, Rattus norvegicus) rats
Procedure: (§1) BS1801 and [^14C]BS1801 were prepared in 0.5% sodium carboxymethyl cellulose solution at a target concentration of 10 mg/mL (10 μCi/mL). The radioactivity of [^14C]BS1801 was measured using a liquid scintillation counter (LSC) (Hidex, Turku, Finland) before and after administration, and a single dose of 10 mL/kg was administered orally.
Three male and three female SD rats were housed individually in metabolic cages. Urine samples were collected from each rat at predose and 0–8, 8–24, 24–48, 48–72, 72–96, 96–120, 120–144, and 144–168 h postdose. When each urine sample was collected, the metabolic cage was flushed with a small amount of water for 0–72 h and methanol/water (50:50, v:v) for 72–168 h, and the flushing solution was added to the urine sample for the corresponding period. Fecal samples were also collected at predose and 0–24, 24–48, 48–72, 72–96, 96–120, 120–144, and 144–168 h postdose. Urine and fecal samples were weighed and recorded during each collection period. All samples were stored at −20 °C for testing.
(§2) Samples of urine (100 μL), bile (30 μL), and plasma (100 μL from the tissue distribution study) were weighed and added to 15 mL scintillation solution. Among them, urine and bile samples were duplicated, and plasma samples were in singlicate. The radioactivity was measured directly via LSC.
(§3) Approximately three times the weight of methanol/water (50:50, v:v) was added to each fecal sample and homogenized with a homogenizer (SKGZ, Shanghai Biheng, Shanghai, China). Approximately 0.2~0.3 g of the fecal homogenate was weighed in a combustion boat, and dried overnight. Blood samples (100 μL) and tissue samples (approximately 0.1 g) were weighed into burning boats. After the samples were completely dried, they were combusted using a Biological Sample Oxidizer (OTCS-11/1, Shanghai Yixing, Shanghai, China). The ^14CO2 generated was captured with 15 mL alkaline scintillation solution; then, the radioactivity was measured using LSC.

[3] = Biliary excretion of radioactivity in bile duct cannulated (BDC) rats; format: in vivo, Sprague–Dawley (SD, Rattus norvegicus) rats; conditions: BDC SD rats, single intragastric 100 mg/kg, within 72 h
Procedure: as §1
Bile duct cannulation (BDC) was performed in 3 male and 3 female SD rats before drug administration. After the operation, the wounds were wiped with iodophor for 2 days, and painkillers were administered appropriately. The state of the rats was observed daily, and the drug was administered only when no abnormality was observed within 2 days. Bile was collected before and 0–4, 4–8, 8–24, 24–48, and 48–72 h after dosing. The weights of the bile samples were recorded, and the samples were stored at −20 °C until testing.
as §2

human serum albumin = test system: human serum albumin; set-up: method as in PMID 35149420; conditions: covalent binding, unstable; cited from earlier work
[4] = Tissue distribution of radioactivity after a single oral dose of [^14C]BS1801; format: in vivo, Long–Evans (LE, Rattus norvegicus) rats; conditions: total radioactivity
Procedure: as §1
Twenty-four LE rats (12 of each sex) were used for tissue distribution studies. Three male and three female rats were sacrificed through abdominal aortic bleeding at 2, 10, 48, and 96 h after administration. Approximately 1/5 of the blood was stored frozen at −20 °C, and the remaining blood was centrifuged (3500× g, 5 min, 4 °C) to obtain plasma. The brain, heart, lung, liver, stomach wall, spleen, kidney, muscle, pigmented fat, ovary, womb, testis, bladder wall, pancreas, small intestine wall, large intestine wall, eye, pigmented skin, thymus, spinal cord, and marrow were also collected. The tissues were washed with saline, dried, and stored at −20 °C until testing.
as §2, §3

[5] = 0–96 h pooled female SD rat urine
[6] = AUC0–72h pooled female SD rat plasma
[7] = AUC0–72h pooled male SD rat plasma
[8] = SD rats, single oral 100 mg/kg, 0 to 168 h

O=c1c2ccccc2[se]n1CCn1[se]c2ccccc2c1=O [BBSKE, 1,2-[bis(1,2-benzisoselenazolone-3 (2H)-ketone)]-ethane]
binding rates with albumin (albumin): high

C[Se]c1ccccc1C(=O)NCCCCN [M286]
amount in urine [1, 5]: 0.20 % of the dose
amount in bile ([1]; pooled 0–48 h male SD rat bile): less than 0.1 % of the dose

O=c1c2ccccc2[se]n1-c1ccccc1 [ebselen, 2-phenyl-1,2-benzisoselenazol-3(2H)-one]
binding rates with albumin (albumin): high

O=c1c2ccccc2[se]n1CCCCn1[se]c2ccccc2c1=O [BS1801]
amount in urine [1, 5]: not detected
amount in urine ([1]; 0–96 h pooled male SD rat urine): not detected
share of total plasma radioactivity [1, 6]: undetected
share of total plasma radioactivity [1, 7]: not detected
detection of parent drug in bile ([1]; SD rat bile): not detected
unchanged drug in rat feces ([1]; SD rat feces, male and female): more than 75.00 % of the dose
recovery of radioactivity in the supernatant after protein precipitation of pooled plasma ([1]; female SD rats): 91.23%
recovery of radioactivity in the supernatant after protein precipitation of pooled plasma ([1]; male SD rats): 105.85%
amount in feces ([1]; pooled female SD rat feces (0–48 h)): 81.89 % of the dose
amount in feces ([1]; pooled male SD rat feces (0–48 h)): 76.97 % of the dose
absorption in rats (inferred from urine and bile recovery) ([2]; SD rats, single oral 100 mg/kg): not well absorbed
radioactive recovery in either urine or bile ([2]; SD rats, single oral 100 mg/kg): less than 1 % of the dose
mean radioactive recovery in urine and feces ([2]; SD rats, single oral 100 mg/kg (100 μCi/kg), 0 to 168 h): 93.39%
cumulative excretion of radioactive substances in feces [2, 8]: 92.77 % of the dose
cumulative excretion of radioactive substances in urine [2, 8]: 0.62 % of the dose
mean radioactive recovery in urine and feces ([2]; SD rats, single oral 100 mg/kg, within 0–48 h): 91.57%
cumulative excretion of radioactive substances in feces ([2]; female SD rats): 93.22 % of the dose
cumulative excretion of radioactive substances in feces ([2]; male SD rats): 92.32 % of the dose
recovery of radioactivity in bile [3]: 0.58%
binding to human serum albumin (human serum albumin): rapidly and thoroughly
ratio of AUC0–96h of brain to that of plasma, rank among analyzed tissues ([4]; brain, LE rats): the lowest
ratio of tissue AUC0–96h to plasma AUC0–96h ([4]; eyes, male LE rats): 5.35
average ratio of blood AUC0–96h to plasma AUC0–96h ([4]; female LE rats): 0.45
ratio of tissue AUC0–96h to plasma AUC0–96h ([4]; large intestine, female LE rats): 16.82
ratio of tissue AUC0–96h to plasma AUC0–96h ([4]; large intestine, male LE rats): 7.48
ratio of tissue AUC0–96h to plasma AUC0–96h ([4]; liver, female LE rats): 6.59
ratio of tissue AUC0–96h to plasma AUC0–96h ([4]; liver, male LE rats): 11.80
average ratio of blood AUC0–96h to plasma AUC0–96h ([4]; male LE rats): 0.73
ratios of other tissues AUC0–96h to plasma AUC0–96h ([4]; other tissues, all rats): lower than 5.00
ratio of tissue AUC0–96h to plasma AUC0–96h ([4]; stomach, male LE rats): 10.60

C[Se]c1ccccc1C(=O)NCCCCNC(=O)c1ccccc1[Se]C [M2]
share of total plasma radioactivity [1, 6]: 81.33 % of the total plasma radioactivity
share of total plasma radioactivity [1, 7]: 65.41 % of the total radioactivity
